Key:
Assay in all cases: Bliss excess, mean over the matrix (fraction); higher = more synergy
[1] = system: RPMI-8226 (Plasma Cell Myeloma)
Procedure, shortened: (§1)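 Cell lines in DMEM/F12 or RPMI with 10% FBS were plated in 1536-well plates, held 24 hours at 37°C, 5% CO2, then given two-drug dose matrices for 72 hours (DMSO typically 0.2%). Viability was read by CellTiter-Glo 2.0 luminescence and scaled as inhibition from 0 (vehicle wells) to 1 (blank wells). Combination Emax is the second-highest inhibition in the matrix; Bliss excess is observed combination effect minus expected EA + EB − EA·EB, EA and EB being single-agent effects.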

[2] = system: T-T (Esophageal Squamous Cell Carcinoma)
Procedure, shortened: as §1

[3] = system: NCCIT (Other Solid Carcinomas)
Procedure, shortened: as §1

[4] = system: SU-DHL-5 (B-Cell Non-Hodgkin's Lymphoma)
Procedure, shortened: as §1

[5] = system: HCC1419 (Breast Carcinoma)
Procedure, shortened: as §1

[6] = system: CW-2 (Colorectal Carcinoma)
Procedure, shortened: as §1

[7] = system: HCC1187 (Breast Carcinoma)
Procedure, shortened: as §1

G-361 (Melanoma) = system: G-361 (Melanoma)
Procedure, shortened: as §1

[8] = system: H9 (T-Cell Non-Hodgkin's Lymphoma)
Procedure, shortened: as §1

[9] = system: SK-GT-4 (Esophageal Adenocarcinoma)
Procedure, shortened: as §1

[10] = system: ST486 (Burkitt's Lymphoma)
Procedure, shortened: as §1

[11] = system: CHSA8926 (Chondrosarcoma)
Procedure, shortened: as §1

[12] = system: KYSE-270 (Esophageal Squamous Cell Carcinoma)
Procedure, shortened: as §1

[13] = system: NCI-H3122 (Lung Adenocarcinoma)
Procedure, shortened: as §1

[14] = system: JHH-4 (Hepatocellular Carcinoma)
Procedure, shortened: as §1

[15] = system: SK-GT-2 (Gastric Carcinoma)
Procedure, shortened: as §1

[16] = system: NCI-H526 (Small Cell Lung Carcinoma)
Procedure, shortened: as §1

NCI-H2731 (Mesothelioma) = system: NCI-H2731 (Mesothelioma)
Procedure, shortened: as §1

[17] = system: MOLM-13 (Acute Myeloid Leukemia)
Procedure, shortened: as §1

[18] = system: KP-3 (Pancreatic Carcinoma)
Procedure, shortened: as §1

Row | Structure (SMILES) | Bliss excess [1] | Bliss excess [2] | Bliss excess [3] | Bliss excess [4] | Bliss excess [5] | Bliss excess [6] | Bliss excess [7] | Bliss excess (G-361 (Melanoma)) | Bliss excess [8] | Bliss excess [9] | Bliss excess [10] | Bliss excess [11] | Bliss excess [12] | Bliss excess [13] | Bliss excess [14] | Bliss excess [15] | Bliss excess [16] | Bliss excess (NCI-H2731 (Mesothelioma)) | Bliss excess [17] | Bliss excess [18]
1 | Cc1c2c(nn1C)CSCc1cc(n(C)n1)CSc1cc(c3ccccc3c1)OCCCc1c(C(=O)O)n(C)c3c-2c(Cl)ccc13 [AZD5991] + CN(C)CCCOc1ccc(-c2ccc3ncc4c(c3c2)n(C2CCOCC2)c(=O)n4C)cn1 [AZD0156] (first compound max 1 µM, 7x7, partner max 1 µM) | 0.0147 | -0.0025 | -0.039 | -0.0041 | 0.0105 | 0.0041 | -0.0266 | 0.0371 | 0.0314 | -0.031 | -0.0716 | 0.0117 | 0.0347 | 0.0187 | -0.0063 | 0.0228 | 0.0054 | -0.0444 | -0.0329 | 0.0077
2 | CN(C)CCCOc1ccc(-c2ccc3ncc4c(c3c2)n(C2CCOCC2)c(=O)n4C)cn1 [AZD0156] + O=C(c1cc(Cc2n[nH]c(=O)c3ccccc23)ccc1F)N1CCN(C(=O)C2CC2)CC1 [Olaparib] (first compound max 3 µM, partner max 3 µM) | 0.103 | 0.122 | 0.0093 | 0.197 | -0.0673 | -0.0031 | 0.0813 | 0.0857 | 0.0284 | 0.0611 | 0.24 | -0.0022 | 0.0509 | -0.0062 | -0.0166 | 0.0292 | 0.167 | 0.0068 | 0.21 | -0.0305
3 | CCN(CCO)CCCOc1ccc2c(Nc3cc(CC(=O)Nc4cccc(F)c4)[nH]n3)ncnc2c1 [AZD2811] + C=CCn1c(=O)c2cnc(Nc3ccc(N4CCN(C)CC4)cc3)nc2n1-c1cccc(C(C)(C)O)n1 [AZD1775] (first compound max 1 µM, partner max 1 µM) | -0.0172 | -0.037 | -0.0037 | -0.0309 | -0.0545 | -0.0169 | -0.0086 | -0.0162 | 0.0252 | -0.0545 | -0.0925 | 0.0032 | -0.0281 | -0.0512 | 0.0015 | 0.0008 | -0.0226 | 0.0089 | -0.0698 | -0.036
4 | CN(CCO)CC[C@H](CSc1ccccc1)Nc1ccc(S(=O)(=O)NC(=O)c2ccc(N3CCC([C@@H](O)c4ccccc4-c4ccc(Cl)cc4)CC3)cc2)cc1S(=O)(=O)C(F)(F)F [AZD4320] + CCN(CCO)CCCOc1ccc2c(Nc3cc(CC(=O)Nc4cccc(F)c4)[nH]n3)ncnc2c1 [AZD2811] (first compound max 1 µM, 7x7, partner max 1 µM) | 0.0003 | 0.01 | 0.0034 | -0.143 | -0.0664 | -0.0073 | -0.0032 | 0.0679 | -0.0247 | -0.0425 | -0.0097 | 0.0873 | -0.0072 | -0.0456 | -0.0226 | 0.026 | 0.105 | -0.005 | 0.0171 | -0.0476
5 | Cc1cc2ncnn2cc1Nc1ncc2c(n1)n(C1CCOCC1)c(=O)n2C [AZD7648] + CCN(CCO)CCCOc1ccc2c(Nc3cc(CC(=O)Nc4cccc(F)c4)[nH]n3)ncnc2c1 [AZD2811] (first compound max 10 µM, 7x7, partner max 1 µM) | 0.0363 | 0.0089 | 0.0781 | -0.0094 | -0.0264 | -0.0089 | -0.0446 | 0.0453 | -0.0378 | -0.0041 | -0.0697 | -0.0331 | 0.0332 | 0.0558 | 0.0136 | 0.0137 | 0.0568 | -0.0077 | -0.0314 | 0.0126
6 | COc1nnc2ccc(N3CCC(c4ccc(OCCN5CCN(C)C(=O)[C@H]5C)cc4)CC3)nn12 [AZD5153] + Cn1cnc2c(F)c(Nc3ccc(Br)cc3Cl)c(C(=O)NOCCO)cc21 [Selumetinib] (first compound max 1 µM, 7x7, partner max 10 µM) | 0.0745 | 0.0702 | -0.0845 | 0.0756 | 0.0238 | 0.0215 | -0.0067 | -0.107 | 0.0074 | -0.0158 | 0.031 | -0.0599 | 0.0576 | -0.0818 | 0.0336 | 0.0006 | -0.0183 | -0.0445 | 0.0238 | -0.0122
7 | Cn1cnc2c(F)c(Nc3ccc(Br)cc3Cl)c(C(=O)NOCCO)cc21 [Selumetinib] + CCN(CCO)CCCOc1ccc2c(Nc3cc(CC(=O)Nc4cccc(F)c4)[nH]n3)ncnc2c1 [AZD2811] (first compound max 10 µM, 7x7, partner max 1 µM) | 0.0053 | -0.0072 | -0.0657 | 0.0214 | -0.0451 | -0.0142 | -0.0374 | 0.0005 | -0.0129 | -0.0533 | 0.0872 | -0.0593 | 0.0103 | 0.0093 | -0.0412 | -0.0443 | -0.017 | -0.0293 | 0.0359 | -0.0293
8 | Cc1c2c(nn1C)CSCc1cc(n(C)n1)CSc1cc(c3ccccc3c1)OCCCc1c(C(=O)O)n(C)c3c-2c(Cl)ccc13 [AZD5991] + CCN(CCO)CCCOc1ccc2c(Nc3cc(CC(=O)Nc4cccc(F)c4)[nH]n3)ncnc2c1 [AZD2811] (first compound max 1 µM, 7x7, partner max 1 µM) | 0.0744 | 0.0614 | -0.0049 | -0.06 | -0.0638 | 0.0059 | -0.0292 | 0.0481 | -0.0072 | -0.0303 | -0.0575 | 0.0305 | 0.0998 | 0.0531 | 0.0134 | 0.039 | 0.123 | -0.0023 | 0.024 | -0.0026
9 | CC1(C)CCC(CN2CCN(c3ccc(C(=O)NS(=O)(=O)c4ccc(NCC5CCOCC5)c([N+](=O)[O-])c4)c(Oc4cnc5[nH]ccc5c4)c3)CC2)=C(c2ccc(Cl)cc2)C1 [Venetoclax] + C[C@@H]1COCCN1C2=NC(=NC(=C2)C3(CC3)[S@](=N)(=O)C)C4=C5C=CNC5=NC=C4 [AZD6738] (first compound max 1 µM, 7x7, partner max 10 µM) | 0.0142 | -0.0286 | -0.0355 | -0.0214 | -0.0479 | 0.0258 | -0.0095 | -0.0132 | 0.0113 | -0.0364 | -0.0369 | -0.0216 | -0.0188 | -0.0649 | -0.0399 | 0.0388 | 0.0144 | -0.0713 | 0.0068 | -0.0227
10 | Cn1cnc2c(F)c(Nc3ccc(Br)cc3Cl)c(C(=O)NOCCO)cc21 [Selumetinib] + C[C@@H]1COCCN1C2=NC(=NC(=C2)C3(CC3)[S@](=N)(=O)C)C4=C5C=CNC5=NC=C4 [AZD6738] (first compound max 10 µM, 7x7, partner max 10 µM) | 0.0032 | -0.041 | -0.0802 | 0.074 | -0.0522 | 0.009 | -0.0539 | -0.0081 | -0.03 | 0.017 | -0.0592 | -0.031 | -0.0302 | -0.0471 | -0.0395 | -0.0229 | -0.0544 | -0.0187 | 0.0491 | -0.0459
11 | Cc1c2c(nn1C)CSCc1cc(n(C)n1)CSc1cc(c3ccccc3c1)OCCCc1c(C(=O)O)n(C)c3c-2c(Cl)ccc13 [AZD5991] + C=CCn1c(=O)c2cnc(Nc3ccc(N4CCN(C)CC4)cc3)nc2n1-c1cccc(C(C)(C)O)n1 [AZD1775] (first compound max 1 µM, partner max 1 µM) | -0.0006 | 0.0282 | -0.0113 | 0.0028 | -0.106 | 0.04 | -0.0342 | 0.0513 | -0.0337 | -0.0617 | -0.0067 | -0.0155 | 0.013 | -0.058 | 0.0308 | -0.0033 | -0.0063 | -0.0336 | -0.0021 | 0.0154
12 | CN(C)CCCOc1ccc(-c2ccc3ncc4c(c3c2)n(C2CCOCC2)c(=O)n4C)cn1 [AZD0156] + CCN(CCO)CCCOc1ccc2c(Nc3cc(CC(=O)Nc4cccc(F)c4)[nH]n3)ncnc2c1 [AZD2811] (first compound max 1 µM, 7x7, partner max 1 µM) | 0.0092 | -0.0262 | -0.0059 | -0.0542 | -0.0427 | -0.0163 | -0.0596 | -0.0148 | -0.124 | -0.0603 | -0.11 | -0.0389 | -0.0307 | -0.0048 | -0.0297 | -0.0156 | 0.0113 | -0.0279 | -0.0617 | -0.0417
13 | Cc1c2c(nn1C)CSCc1cc(n(C)n1)CSc1cc(c3ccccc3c1)OCCCc1c(C(=O)O)n(C)c3c-2c(Cl)ccc13 [AZD5991] + C[C@@H]1COCCN1C2=NC(=NC(=C2)C3(CC3)[S@](=N)(=O)C)C4=C5C=CNC5=NC=C4 [AZD6738] (first compound max 1 µM, 7x7, partner max 10 µM) | 0.008 | 0.0461 | 0.0573 | -0.0059 | -0.0091 | 0.0514 | 0.0756 | 0.0356 | 0.0395 | -0.0038 | 0.0248 | -0.0081 | 0.0289 | 0.056 | 0.0496 | 0.026 | 0.0188 | -0.0074 | 0.0037 | 0.0405
14 | COc1nnc2ccc(N3CCC(c4ccc(OCCN5CCN(C)C(=O)[C@H]5C)cc4)CC3)nn12 [AZD5153] + CC1(C)CCC(CN2CCN(c3ccc(C(=O)NS(=O)(=O)c4ccc(NCC5CCOCC5)c([N+](=O)[O-])c4)c(Oc4cnc5[nH]ccc5c4)c3)CC2)=C(c2ccc(Cl)cc2)C1 [Venetoclax] (first compound max 1 µM, 7x7, partner max 1 µM) | -0.0035 | -0.0319 | -0.0245 | -0.0107 | -0.0499 | -0.0642 | -0.0462 | -0.0649 | 0.0162 | -0.0444 | -0.0493 | -0.0287 | -0.0185 | -0.0372 | -0.0442 | -0.028 | 0.0192 | -0.085 | 0.0179 | -0.0399

— the supplement of paper PMC11061612
